Source: patent publication US12667569B2, “Use of sepiapterin and metabolites thereof to treat radiation exposure” (PTC Therapeutics MP, Inc., priority 2019, dated 2026)
Entries after “also recorded” stand apart in the source; their conditions may differ.

Columns and labels:
[1] = tested on: cytokines' mRNAs in lung tissue; experiment: Cytokine mRNA expression (qPCR) in lung tissue after irradiation; assay type: in vivo, mice
Protocol: (§1) Total RNA was isolated from the lung and heart tissue samples following the manufacturers instructions with the RNeasy Mini kit (Qiagen). The RNA concentration was evaluated by using a NanoDrop ND-1000 spectrophotometer (Thermo Scientific). RNA purity was assessed by the ratios of A260/A280 and A260/A230. RNA integrity was evaluated by the ratio of 28S/18S ribosomal RNA (rRNA) and the RNA integrity number (RIN) using an Agilent 2100 BioAnalyzer (Agilent Technologies). cDNA synthesis and genomic DNA elimination were performed by using RT2 First Strand Kit (QIAGEN). Samples were amplified using RT2 SYBR® Green qPCR Mastermix probes from QIAGEN on the QuantStudio 5 RT-PCR machine (Applied Biosystems). The following RT2 qPCR Primer Assays (QIAGEN) were used: Mouse Actin-β (NM_007393), Mouse Bmp2 (NM_007553), Mouse Ccl2 (NM_011333), Mouse Ctgf (NM_010217), Mouse IL-1β (NM_008361), Mouse IL-6 (NM_031168), Mouse IL-10 (NM_010548), Mouse IL-17α (NM_010552), Mouse Runx2 (NM_001145920), Mouse Spp1 (NM_001204201), Mouse TGF-β1 (NM_011577), Mouse Trim72 (NM_001079932).

[2] = tested on: plasma IL-6, fibrinogen, neutrophil elastase, C-reactive protein; experiment: Plasma ELISA of IL-6, fibrinogen, neutrophil elastase, C-reactive protein after irradiation; assay type: in vivo, mice
Protocol: At the time of sacrifice, blood was obtained by heart puncture into EDTA containing tubes and centrifuged at 3000 rpm for 25 mins to isolate the plasma. The following ELISA plates from Abcam were used for analysis: fibrinogen (ab213478), neutrophil elastase (ab252356), C-reactive protein (ab157712) and IL-6 (ab100713). Plasma samples were processed and ELISA kits were run according to manufacturer recommendations. All cytokines were reported with an absolute unit. Key molecular players of the coagulation cascade like tissue factor, thrombin, and fibrinogen are epidemiologically and mechanistically linked with an inflammatory component. Genetic and pharmacologic studies have unraveled pivotal roles for fibrinogen in determining the extent of local or systemic inflammation. Neutrophil elastase, a serine protease present in the azurophil granules of neutrophils, is released in an inflammatory state and disintegrates extracellular matrices due to its low substrate specificity, resulting in tissue injury. Neutrophil elastase is one of the most destructive enzymes in the body. Once unregulated, this enzyme disturbs the function of the lung permeability barrier and induces the release of pro-inflammatory cytokines with stimulation of acute lung injury. […] High levels of IL-6 in blood plasma may exacerbate the inflammatory response in the lung tissue, which ultimately causes IL-6 leakage to bronchoalveolae and further lung damage. High levels of IL-6 in the lung tissue may attract more inflammatory cells such as neutrophils, monocytes, macrophages to the injured local lung which ultimately causes serious damage to the lung and leads to chronic fibrosis. An acute raise of IL-6 in plasma can lead to increases in C Reactive Protein (CRP). C Reactive Protein (CRP) is produced by the liver and is a biomarker for general stress response to inflammation or infectious agents. It was shown that serum CRP level may be an effective indicator for predicting the occurrence of radiation pneumonitis and valuable factor for evaluating radiation-induced lung-injury extent.

[3] = tested on: cytokines' mRNAs in heart tissue; experiment: Cytokine mRNA expression (qPCR) in heart tissue after irradiation; assay type: in vivo, mice; settings: 8 days, 30 days, 16 weeks after IR, SP vs vehicle
Protocol: as §1

C57L/J mice [4] = experiment: Survival over 180 days post IR (Kaplan Meyer); assay type: in vivo
Protocol: (§2) Equal numbers of male and female mice were distributed to each group. While under ketamine/xylazine anesthesia (100 mg/kg and 10 mg/kg, respectively) mice received 5 Gy total body irradiation (TBI), immediately followed by a top-up dose of 6.5 Gy to the thorax, for a total thoracic dose of 11.5 Gy, using a Varian 21 EX LINAC (Palo Alto, CA). Twenty-four hours post-irradiation, mice were treated once daily for 6 days by oral gavage with 1 mg/kg sepiapterin or 5 mg/kg BH4 dissolved in water (FIG. 1).
To determine whether the improved cardiopulmonary function impacted overall survival the mice were followed over 180 days post IR.

[5] = tested on: cytokines' mRNAs in lung tissue; experiment: Cytokine mRNA expression (qPCR) in lung tissue after irradiation; assay type: in vivo, mice; settings: 16 weeks after IR, mean±SD, vehicle 4.25±0.537
C57L/J mice [6] = experiment: Echocardiography: contractile reserve (isoproterenol response), myocardial performance index, IRT after irradiation; assay type: in vivo
Protocol: Both male and female C57L/J wild-type 6-8-week-old mice were purchased from Jackson Laboratory (Bar Harbor, ME). The mice were housed with a 12:12 h light-dark schedule and access to water and food ad libitum. The experiments were conducted under the guidelines of laboratory animals for biomedical research published by the National Institutes of Health (rev. 2011). The study protocol was approved by the Institutional Animal Care and Use Committee of Virginia Commonwealth University.
as §2
All mice underwent transthoracic echocardiography at baseline (before irradiation (IR)), at 8, 30, 60, 90 and 180 days, under light anesthesia (30 mg/kg pentobarbital sodium). Echocardiography was performed with the Vevo770 imaging system (VisualSonics, Toronto, Ontario, Canada) and a 30-MHz probe. The heart was visualized in B-mode from parasternal short-axis and apical views. The left ventricular (LV) end-diastolic diameter (EDD), LV end-systolic diameter (ESD), LV anterior wall diastolic thickness (AWDT), and LV posterior wall diastolic thickness (PWDT), LV anterior wall systolic thickness (AWST), and LV posterior wall systolic thickness (PWST) were measured at M-mode, according to the American Society of Echocardiography recommendations. LV ejection fraction (EF), and LV mass were calculated from the measurements of wall thickness and chamber diameters. The LVEF was derived using the Teicholz formula (LVEF=[LVEDD3−LVESD3]/LVEDD3), as previously described. The transmitral LV outflow tract Doppler spectra (E, A, ET) was recorded from an apical four-chamber view, and the myocardial performance index (MPI) was calculated as the […] isovolumetric contraction time (ICT) and isovolumetric relaxation time (IRT) divided by the ejection time (ED. The investigators performing and reading the echocardiograms were blinded to the treatment allocation. A beta-adrenergic agonist, isoproterenol (Sigma Aldrich, St. Louis, MO, USA) 20 ng/mouse, was used to assess cardiac contractility in irradiated mice without SP treatment. Cardiac contractility (contractile reserve) was expressed as percentage change in LVEF measured at rest (LVEFr) and 3 min after isoproterenol injection (LVEFi) and calculated as [(LVEFi−LVEFr)/LVEFr]*100. Measurements of the contractile reserve were taken at baseline, 8, 30, 60, 90 and 180 days after IR. Echocardiogram assessment was performed by an operator blinded to treatment allocation.

C57L/J mice [7] = experiment: Assessment of lung injury by breathing rate (MouseOx) after irradiation; assay type: in vivo; settings: irradiated mice
Protocol: as §2
The breathing rate was measured every other week starting in week 6 using the Mouse Ox system (STARR Life Sciences Corp., Allison Park, PA). The animal was placed under ketamine/xylazine anesthesia and shaved in the area of analysis. 10 min post injection the animal was placed in a supine position with the sensor clipped to the upper thigh. The breathing rate was recorded for 3 min. The breathing rate was calculated using an algorithm in the Mouse Ox software.

exosomal miRNAs = experiment: Serum exosomal miRNA expression after irradiation; assay type: in vivo, mice
Protocol: Blood was collected by cardiac puncture using EDTA vials. Blood samples were centrifuged 3,000×g for 25 minutes, and plasma fraction was aliquoted and saved in a vapor phase of liquid nitrogen. Exosomes were isolated from the plasma of mice at the time points shown in FIGS. 6A-6C using an Exosome isolation kit from 101Bio. Exosome concentrations were quantified by EXOCET Exosome Quantitation Kit (System Biosciences). Equal exosome number from 5 animals were combined for each time point, and total exosomal RNA was extracted by using miRNeasy Micro Kit (QIAGEN). For the miRNAs expression profiling the miRCURY LNA™ Universal RT microRNA PCR assay (QIAGEN) and ExiLENT SYBR® Green Maser Mix (QIAGEN) were used. The initial estimation of exosomal miRNAs expression was performed by using Serum/Plasma LNA™ miRNA PCR Panel (Cat. #YAHS-106Y. QIAGEN) on the QuantStudio 5 RT-PCR machine (Applied Biosystems).
The first group included let-7a-5p, miR-1, miR-106b-3p, miR-106b-5p, miR-126-3p, miR-181a-5p, miR-335-3p, and miR-335-5p. […] The second group included let-7g-5p, let-7i-5p, and miR-16-5p. There were no significant differences between males and females both in terms of exosomal miRNA expression altered by IR or the effects of sepiapterin on miRNA expression.

[8] = 30 days after IR, SP-treated vs vehicle-treated
[9] = irradiated mice, BH4 5 mg/kg oral once daily 6 days from 24 h post-IR

C[C@H](O)C(=O)C1=Nc2c([nH]c(N)nc2=O)NC1 [SP, Sepiapterin]
relative expression of TGF-β1 mRNA ([1]; 16 weeks after IR, mean±SD, vehicle 3.26±0.339): 1.53±0.367 | relative expression of IL-17A mRNA ([1]; 16 weeks after IR, mean±SD, vehicle 4.5±0.824): 2.12±1.173 | relative expression of IL-6 mRNA ([1]; 16 weeks after IR, mean±SD, vehicle 28.85±5.987): 17.05±4.12 | relative expression of IL-17A mRNA ([1]; 8 days after IR, mean±SD, vehicle 9.19±2.783): 2.71±1.874 | relative expression of IL-6 mRNA ([1]; 8 days after IR, mean±SD, vehicle 16.88±4.91): 1.36±0.509 | relative expression of IL-1β mRNA ([1]; 8 days after IR, relative to non-irradiated control, mean±SD, vehicle 2.9±0.649): 1.54±0.825 | relative expression of Ccl2 mRNA ([1]; 30 days after IR, SP vs vehicle): no significant difference between Vehicle-treated and SP-treated animal groups | relative expression of IL-1β mRNA ([1]; 30 days after IR, mean±SD, vehicle 3.39±0.532): 1.66±0.51 | relative expression of IL-17A mRNA ([1]; 30 days after IR, mean±SD, vehicle 5.65±2.263): 1.49±0.379 | relative expression of IL-6 mRNA ([1]; 30 days after IR, mean±SD, vehicle 9.09±0.533): 4.96±0.905 | plasma level of IL-6 ([2]; 4 days after IR, vehicle 304.05±153.23): 97.00 ± 45.71 pg/mL | plasma level of IL-6 ([2]; 8 days after IR, vehicle 606.09±72.72): 49.85 ± 39.36 pg/mL | plasma level of fibrinogen ([2]; 8 days after IR, vehicle 948.77±98.54): 332.38 ± 109.02 µg/mL | plasma level of neutrophil elastase ([2]; 180 days after IR, vehicle 25.21±6.54): 12.15 ± 2.87 ng/mL | plasma level of IL-6 ([2]; 180 days after IR, vehicle 197.22±55.55): 40.06 ± 43.26 pg/mL | plasma C reactive protein ([2]; any time-point after IR, SP vs vehicle): did not demonstrate significant difference | expression of all evaluated cytokines (Bmp2, Ccl2, Ctgf, IL-1β, IL-6, IL-10, IL-17A, IL-33, Runx2, Spp2, TGF-β1, Trim72) [3]: no significant difference in expression between Vehicle-treated and SP-treated groups | mice alive at 180 days (C57L/J mice [4]; 11.5 Gy total thoracic dose, 1 mg/kg/day SP for 6 days, untreated 40%): 71% | overall survival (C57L/J mice [4]; 11.5 Gy total thoracic dose, 1 mg/kg/day SP for 6 days, vs irradiated without treatment, 1 mg/kg/day): significantly delayed and overall improved survival; also recorded: increased survival | relative expression of Spp2 mRNA [5]: 2.38±0.211 | systolic and diastolic function response, evaluated by sex (C57L/J mice [6]; irradiated male vs female mice, 1 mg/kg SP): no significant differences in heart function response | mitigation of loss in contractile reserve, evaluated by sex (C57L/J mice [6]; irradiated male vs female mice, SP 1 mg/kg): equally effective in mitigating this loss in contractile reserve | contractile reserve (response to isoproterenol) (C57L/J mice [6]; irradiated mice (5 Gy TBI + 6.5 Gy thorax), SP 1 mg/kg oral once daily 6 days from 24 h post-IR, up to 180 days, vs vehicle): restore the response to beta-adrenergic stimulation by isoproterenol; also recorded: enhanced contractile reserve; also recorded: blunted the drop in the contractile reserve at all the time points | myocardial performance index (Tei index) and isovolumetric relaxation time (IRT); systolic and diastolic function (C57L/J mice [6]; irradiated mice, SP 1 mg/kg oral once daily 6 days from 24 h post-IR, up to 180 days, vs vehicle): ameliorating the progressive increase in myocardial performance index and IRT; also recorded: improved systolic and diastolic function; also recorded: blunted the increase in the Tei index and IRT at all the time points | time to development of lung injury (C57L/J mice [7]; 1 mg/kg/day SP for 6 days, vehicle 10 weeks): 14 weeks | lung function (breathing rate) (C57L/J mice [7]; 1 mg/kg/day SP for 6 days, vs vehicle, 1 mg/kg/day): significantly reduced impairment of lung function at all points measured; also recorded: decreasing breathing frequency; also recorded: significantly improved pulmonary function at all points measured | exosomal expression of let-7a-5p, miR-1, miR-106b-3p, miR-106b-5p, miR-126-3p, miR-181a-5p, miR-335-3p, miR-335-5p (exosomal miRNAs; [8]): significantly lower in vehicle-treated animals comparing with SP-treated animals | exosomal expression of let-7g-5p, let-7i-5p, miR-16-5p (exosomal miRNAs; [8]): significantly higher in vehicle-treated animals comparing with SP-treated animals

C[C@H](O)[C@H](O)[C@H]1CNc2[nH]c(N)nc(=O)c2N1 [BH4, Tetrahydrobiopterin]
survival (C57L/J mice [4]; irradiated mice, oral BH4 starting 24 hours after radiation): increased survival | contractile reserve (C57L/J mice [6]; [9]): enhanced contractile reserve | systolic and diastolic function (C57L/J mice [6]; [9]): improved systolic and diastolic function | development of lung injury (C57L/J mice [7]; 5 mg/kg BH4 for 6 days, vs vehicle): significant delay in the development of lung injury | lung function (breathing rate) (C57L/J mice [7]; 5 mg/kg BH4 for 6 days, vs vehicle, 5 mg/kg): significantly reduced impairment of lung function at all points measured; also recorded: decreasing breathing frequency | exosomal expression of miR-15b-3p, miR-106a-5p, miR-133b, miR-136-5p, miR-451a, miR-1, miR-335-3p, let-7d-3p, let-7c-5p (exosomal miRNAs; irradiated mice, BH4 treatment (FIG. 6A)): increases in expression
